Data on four molecules can be found in paper PMC8795539 (Proceedings of the National Academy of Sciences of the …, 2022).

For orientation: Kd means the equilibrium constant for the complex coming apart. A high value points to weaker binding. For orientation: Km means the concentration of substrate that gives half-maximal velocity. The term stoichiometry N denotes a count of units in the complex or per binding partner.

The target in data set [1] is T1, SmoA (Atu3277), flavin mononucleotide reductase (Agrobacterium fabrum, UniProt Q7CS24).
T1 sequence (Q7CS24 1-174): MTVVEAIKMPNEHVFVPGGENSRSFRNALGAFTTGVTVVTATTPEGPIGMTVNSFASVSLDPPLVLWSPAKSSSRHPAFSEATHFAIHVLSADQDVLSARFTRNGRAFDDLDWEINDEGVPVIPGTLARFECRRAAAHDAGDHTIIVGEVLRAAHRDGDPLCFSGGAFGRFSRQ
Put plainly: copurification, LC-MS of heat-released flavin. It is filed as binding.

Data set [2] addresses T2, SmoB (Atu3278), 6-OG reductase (Agrobacterium fabrum, UniProt A9CEY6).
T2 sequence (A9CEY6 1-297): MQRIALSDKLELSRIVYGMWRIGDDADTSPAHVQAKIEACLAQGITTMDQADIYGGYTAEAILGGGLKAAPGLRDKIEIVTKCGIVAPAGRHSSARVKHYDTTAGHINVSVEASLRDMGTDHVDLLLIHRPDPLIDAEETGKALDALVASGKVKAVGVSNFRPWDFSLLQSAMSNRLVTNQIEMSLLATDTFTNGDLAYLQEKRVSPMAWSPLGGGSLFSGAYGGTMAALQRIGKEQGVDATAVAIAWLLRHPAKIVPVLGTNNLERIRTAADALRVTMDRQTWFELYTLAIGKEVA
The experiment in a line: ITC. Type of data set: binding.

Substrate in the data set “purified protein”: NC(=O)C1=CN([C@@H]2O[C@H](COP(=O)(O)OP(=O)(O)OC[C@H]3O[C@@H](n4cnc5c(N)ncnc54)[C@H](O)[C@@H]3O)[C@@H](O)[C@H]2O)C=CC1
Put plainly: purified protein. To be noted: FMN.

The data set “SEC-MALS” deals with the molecule itself. The experiment in a line: SEC-MALS.

`Cc1cc2nc3c(=O)[nH]c(=O)nc-3n(C[C@H](O)[C@H](O)[C@H](O)COP(=O)(O)O)c2cc1C` [FMN]: the “copurification, LC-MS of heat-released flavin” value in data set [1] was “to reveal that flavin mononucleotide (FMN) was the sole detectable flavin”.
Turning to `NC(=O)C1=CN([C@@H]2O[C@H](COP(=O)(O)OP(=O)(O)OC[C@H]3O[C@@H](n4cnc5c(N)ncnc54)[C@H](OP(=O)(O)O)[C@@H]3O)[C@@H](O)[C@H]2O)C=CC1` [NADPH], the Kd in data set [2] is about 2 µM.

B1: SmoA (Atu3277), flavin mononucleotide reductase (Agrobacterium fabrum str. C58) (protein)
chain: T1 sequence (Q7CS24 1-174)
Take B1: in the data set “purified protein”, the Km was found to be 35 ± 5 µM.

B2: SmoC (Atu3279), SQ monooxygenase from Agrobacterium tumefaciens C58 (enzyme)
chain: MTVVPVTSADLDAAEVSWFSALCSDDYAYLGVPDGSLRSSFEHCSDIVKKAEELGFRNILCPSSYQVGQDTLSFVAGCAPISDRINFLAAIRCGEMQPIMLARTVATLDHMLKGRLTLNVISSDFPGEVADSAFRYKRSHEVVEILRQAWTRDTIDHDGEIYQFKGVSTEPARPYQLNGGPLLYFGGYSPDALELCGAQCDVYLMWPETKDQLADRMRAAHERAAAHGRTLDYGLRVHMVVRDTEQEAREYADHLVSKLDDEYGQLIRNRAHDSGSLGVSHQARARELADKFGYVEPNLWTGIGRARSGCGAALVGSTDQVLSALEEYQKMGIRAFILSGYPHLDEAEHFGTKVLPQMKTCSLPHAYGRVPSETPATPLGNGERH
On to B2, for which the “stoichiometry N” value in “SEC-MALS” was 2.
